PubChem BioAssay AID256 (DTP/NCI, 2004)
Toxic doses and inconclusive results are not listed.

System: CD2F1 mice, L1210 leukemia ip, survival T/C
Assay: NCI In Vivo Anticancer Drug Screen. Data for tumor model L1210 Leukemia (intraperitoneal) in CD2F1 (CDF1) mice
Conditions: endpoint: mean survival time, vehicle: saline with Tween-80, higher = longer survival
Summary of the method: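 Compound-dosed mice with transplantable tumor versus matched vehicle controls; endpoint ratio T/C reported.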

CC1CCOC(c2ccccc2)O1 (stereo not drawn)
T/C (dose: 50.0 mg/kg/injection, schedule: Q04DX002 (ip)): 102 % of control | T/C (dose: 100.0 mg/kg/injection, schedule: Q04DX002 (ip)): 94 % of control | T/C (dose: 200.0 mg/kg/injection, schedule: Q04DX002 (ip)): 97 % of control

CCC(=O)Nc1cccc(OS(=O)(=O)N(C)C)c1
T/C (dose: 200.0 mg/kg/injection, schedule: Q04DX003 (ip)): 97 % of control | T/C (dose: 400.0 mg/kg/injection, schedule: Q04DX003 (ip)): 94 % of control

CCCCSC#N
T/C (dose: 7.5 mg/kg/injection, schedule: Q01DX009 (ip)): 95 % of control | T/C (dose: 15.0 mg/kg/injection, schedule: Q01DX009 (ip)): 100 % of control | T/C (dose: 30.0 mg/kg/injection, schedule: Q01DX009 (ip)): 91 % of control
